Patent US8216551B2, “In vivo system to monitor tissue responses in birds” (The Board of Trustees of the University of Arkansas, priority 2008, dated 2012)

Key:
[1] = tested on: feather pulp; assay: Local tissue response to LPS or PHA injected into feathers and wing webs; type: in vivo, chicken; details: for composition of the infiltrate / MHC class II expression: 6 hours post-injection; for MHC class II expression: immunohistochemistry; for leukocyte infiltration: in vivo
[2] = tested on: feather pulp; assay: Local tissue response to injection of IFN-γ into growing feathers; type: in vivo, chicken; details: for mean score of extent of mononuclear infiltration: score 1=no infiltration

| Molecule | composition of the infiltrate [1] | MHC class II expression [1] | leukocyte infiltration [1] | mean score of extent of mononuclear infiltration ([2]; 6 h post-injection, 5=extensive infiltration throughout the entire pulp) | mean score of extent of mononuclear infiltration ([2]; 1 day post-injection, 5=extensive) | mean score of extent of mononuclear infiltration ([2]; 2 days post-injection, 5=extensive) | mean score of extent of mononuclear infiltration ([2]; 3 days post-injection, 5=extensive) | histological analysis, cell infiltration into the feather pulp ([2]; by 6 h, preliminary) |
| --- | --- | --- | --- | --- | --- | --- | --- | --- |
| lipopolysaccharide [LPS] | primarily of heterophils | noticeable increase | extensive leukocyte infiltration |  |  |  |  |  |
| phytohaemagglutinin [PHA] | heterophils and mononuclear cells | substantially increased | extensive leukocyte infiltration |  |  |  |  |  |
| IFN-γ: recombinant chicken IFN-γ (protein, UniProt P49708 20-164, looked up) Interferon gamma: HTASSLNLVQLQDDIDKLKADFNSSHSDVADGGPIIVEKLKNWTERNEKRIILSQIVSMYLEMLENTDKSKPHIKHISEELYTLKNNLPDGVKKVKDIMDLAKLPMNDLRIQRKAANELFSILQKLVDPPSFKRKRSQSQRRCNC |  |  |  | 1.6±0.1 | 4.0±0.5 | 3.2±0.6 | 3.0±0.9 | mononuclear cell infiltration into the feather pulp, but no granulocytes |
